The record followed here is ChEMBL document CHEMBL1201862, “PubChem BioAssay data set” (2004).

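1) Cells in 96-well plates. 2) Compound, 48 h, 5 concentrations. 3) Linear interpolation between surrounding doses. 4) Unreached endpoint = highest concentration. The concentration for 50% growth inhibition is given as GI50.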 Active and inactive are the calls of the source. Rule as the data show it: active = GI50 up to about 1.1 µM and inactive = higher.

Test systems include A498; A549; ACHN; CCRF-CEM; COLO 205; HCT-116; HOP-62; M14; MDA-MB-231; MOLT-4; NCI-H460; OVCAR-5; SF-539; SK-OV-3; SNB-19; SW-620; UO-31; NCI-H522; CAKI-1; SR.
What all share (assay): growth of human tumour cells (NCI), 48 h

In the case of `COc1ccc(/C=C2/S/C(=N\c3ccccc3)N(NC(=O)Cc3ccccc3)C2=O)cc1`, the GI50 with A498, in the experiment with A549, with ACHN, in the experiment with CCRF-CEM, in the experiment with COLO 205 and in the experiment with HCT-116 was > 100 µM (inactive) each time. Besides, the GI50 with HOP-62, with M14, with MDA-MB-231, in the experiment with MOLT-4, in the experiment on NCI-H460 and in the experiment with OVCAR-5 was > 100 µM (inactive) each time. For the same compound, the GI50 with SF-539 was > 100 µM (inactive); in the experiment with SK-OV-3, > 100 µM (inactive); in the experiment on SNB-19, > 100 µM (inactive); in the experiment on SW-620 it was > 100 µM (inactive); with UO-31, 92.3 µM (inactive).
With `CCC(=O)Nc1ccc(/N=N/N(C)C)cc1`, the GI50 with A498 was > 100 µM (inactive); with A549 it was > 100 µM (inactive); in the experiment on ACHN, > 100 µM (inactive); in the experiment on COLO 205, 63.4 µM (inactive); in the experiment with HCT-116, > 100 µM (inactive); in the experiment with HOP-62 it was > 100 µM (inactive). The GI50 was > 100 µM (inactive) with M14; > 100 µM (inactive) in the experiment with MDA-MB-231; 6.73 µM (inactive) in the experiment on MOLT-4; > 100 µM (inactive) in the experiment on NCI-H460; 14.4 µM (inactive) in the experiment with NCI-H522; > 100 µM (inactive) in the experiment on OVCAR-5. Moreover, the GI50 with SF-539, with SK-OV-3, with SNB-19, with SW-620 and with UO-31 was > 100 µM (inactive) each time.
`CCOC(=O)c1sc2nc1CSc1sc(=S)sc1SCc1nc(sc1C(=O)OCC)-c1nc(c(C(=O)OCC)s1)CSc1sc(=S)sc1SCc1nc-2sc1C(=O)OCC`: the GI50 in the experiment on A549, with ACHN, in the experiment with CAKI-1, in the experiment with CCRF-CEM, in the experiment with COLO 205 and with HCT-116 was > 10 µM (inactive) throughout. The GI50 with HOP-62, with MDA-MB-231, in the experiment on MOLT-4, in the experiment with NCI-H460, in the experiment with NCI-H522 and with OVCAR-5 was > 10 µM (inactive) each time. In addition, the GI50 in the experiment on SF-539, with SK-OV-3, in the experiment with SNB-19, in the experiment on SR, with SW-620 and in the experiment on UO-31 was > 10 µM (inactive) in each case.
With `CCCC(=O)NC(C(=O)OCC)(N1CCOCC1)C(F)(F)F` (stereo not given), the GI50 in the experiment with A549, with ACHN, in the experiment on CAKI-1, in the experiment on CCRF-CEM, with COLO 205 and with HCT-116 was > 100 µM (inactive) in each case. The GI50 in the experiment on HOP-62, with M14, with MDA-MB-231, in the experiment on MOLT-4, with NCI-H522 and in the experiment with OVCAR-5 was > 100 µM (inactive) each time. In addition, the GI50 in the experiment on SF-539, in the experiment on SK-OV-3, in the experiment with SNB-19, with SR, in the experiment with SW-620 and in the experiment on UO-31 was > 100 µM (inactive) throughout.
Regarding `CCOC(=O)CO/N=C\C1=CC(=O)C2CC1C2(C)C` (stereo not given), the GI50 in the experiment on A498, with ACHN, in the experiment with CAKI-1, in the experiment on CCRF-CEM, in the experiment with COLO 205 and in the experiment with HCT-116 was > 100 µM (inactive) in each case. The GI50 in the experiment with M14, with MDA-MB-231, in the experiment with MOLT-4, with OVCAR-5, with SF-539 and in the experiment with SNB-19 was > 100 µM (inactive) throughout. Also, the GI50 in the experiment on SW-620 and in the experiment on UO-31 was > 100 µM (inactive) in each case.
As to `O=C1C=C(N2CCCC2)C(=O)c2c(O)ccc(O)c21`, the GI50 in the experiment on A498 was > 10 µM (inactive); in the experiment on A549 it was > 10 µM (inactive); with ACHN it was > 10 µM (inactive); in the experiment with CCRF-CEM, 1.71 µM (inactive); with HOP-62 it was > 10 µM (inactive); in the experiment with M14, 6.32 µM (inactive). Further, the GI50 is > 10 µM (inactive) in the experiment with MDA-MB-231; 2.37 µM (inactive) in the experiment on MOLT-4; > 10 µM (inactive) with NCI-H460; > 10 µM (inactive) with OVCAR-5; > 10 µM (inactive) in the experiment with SF-539; > 10 µM (inactive) in the experiment on SK-OV-3. For the same compound, the GI50 in the experiment with SNB-19, in the experiment on SW-620 and in the experiment with UO-31 was > 10 µM (inactive) throughout.
With `O=C(NNC(=O)c1ccccc1SSc1ccccc1C(=O)NNC(=O)c1ccccc1S)c1ccccc1S`, the GI50 is 13.4 µM (inactive) in the experiment with A549; 19.3 µM (inactive) with ACHN; 12.9 µM (inactive) in the experiment with CAKI-1; 1.29 µM (inactive) in the experiment with CCRF-CEM; 36.4 µM (inactive) in the experiment with COLO 205; 7.18 µM (inactive) with HCT-116. Besides, the GI50 in the experiment with HOP-62 was 25.9 µM (inactive); with M14 it was 17.7 µM (inactive); in the experiment on MDA-MB-231, 19.6 µM (inactive); in the experiment with MOLT-4, 6 µM (inactive); in the experiment on NCI-H460, 10.4 µM (inactive); in the experiment on NCI-H522 it was 0.49 µM (active). Further, the GI50 in the experiment on OVCAR-5 is 44.5 µM (inactive); with SF-539, 13.8 µM (inactive); with SK-OV-3 it was 46.5 µM (inactive); with SNB-19, 26.2 µM (inactive); with SR, 5.35 µM (inactive); in the experiment on SW-620, 12 µM (inactive). Further, in the experiment on UO-31, the GI50 is 9.95 µM (inactive).
`CC1CC(N)=Nc2ccccc2N1` (stereo not given): the GI50 in the experiment with A549, in the experiment with ACHN, in the experiment with CAKI-1, with CCRF-CEM, in the experiment with COLO 205 and with HCT-116 was > 100 µM (inactive) throughout. Also, the GI50 in the experiment on HOP-62, with M14, in the experiment with MDA-MB-231, in the experiment on MOLT-4, with NCI-H522 and in the experiment on OVCAR-5 was > 100 µM (inactive) throughout. For the same compound, the GI50 with SK-OV-3, in the experiment with SNB-19, with SW-620 and in the experiment with UO-31 was > 100 µM (inactive) each time.
Regarding `CC(C)C(=O)Oc1cc2c(=O)oc3c(OC(=O)C(C)C)c(OC(=O)C(C)C)cc4c(=O)oc(c1OC(=O)C(C)C)c2c34`, the GI50 in the experiment on A498, in the experiment with A549, in the experiment with ACHN, with CAKI-1, with CCRF-CEM and in the experiment on COLO 205 was > 100 µM (inactive) each time. Also, the GI50 with HCT-116, with HOP-62, in the experiment on M14, with MDA-MB-231, in the experiment with MOLT-4 and in the experiment with NCI-H460 was > 100 µM (inactive) each time. In addition, the GI50 with NCI-H522, in the experiment with OVCAR-5, in the experiment on SF-539, with SK-OV-3, in the experiment with SNB-19 and with SW-620 was > 100 µM (inactive) throughout. Further, in the experiment with UO-31, the GI50 is > 100 µM (inactive).
`C[C@@H]1O[C@@H](O[C@H]2CC[C@]3(C=O)[C@H]4CC[C@]5(C)[C@@H](C6=CC(=O)OC6)CC[C@]5(O)[C@@H]4CC[C@]3(O)C2)[C@H](O)[C@H](O)[C@H]1O` [CONVALLATOXIN]: the GI50 with A498 was 5.74e-05 µM (active); with A549, < 0.01 µM (active); in the experiment on ACHN, 9.73e-06 µM (active); in the experiment on CAKI-1, 1.23e-05 µM (active); in the experiment with CCRF-CEM, < 0.01 µM (active); with COLO 205, 9.35e-05 µM (active). For the same compound, the GI50 with HCT-116 is < 0.01 µM (active); with HOP-62, 1.05e-05 µM (active); with M14 it was 0.0146 µM (active); in the experiment with MDA-MB-231 it was 0.00013 µM (active); in the experiment with MOLT-4 it was 6.01e-06 µM (active); in the experiment on NCI-H460 it was 8.47e-06 µM (active). For the same compound, the GI50 in the experiment with NCI-H522 is 9.93e-06 µM (active); in the experiment on OVCAR-5, 4.24e-05 µM (active); in the experiment with SF-539, 1.83e-05 µM (active); with SK-OV-3 it was 4.37e-05 µM (active); in the experiment on SNB-19, 0.0178 µM (active); in the experiment on SW-620, 3.93e-05 µM (active). Besides, the GI50 in the experiment on UO-31 is < 0.01 µM (active).
For the compound `CC(C)=NOC(=O)Nc1cccc2c1OCO2`, the GI50 in the experiment with A498 is > 100 µM (inactive); in the experiment on A549 it was > 100 µM (inactive); with ACHN, 80.9 µM (inactive); with CAKI-1, > 100 µM (inactive); with COLO 205 it was > 100 µM (inactive); with HCT-116, > 100 µM (inactive). Further, the GI50 in the experiment with HOP-62, in the experiment with M14, with MDA-MB-231, in the experiment on MOLT-4, with NCI-H460 and in the experiment with NCI-H522 was > 100 µM (inactive) in each case. Further, the GI50 in the experiment on OVCAR-5, in the experiment on SF-539, with SK-OV-3, with SNB-19, in the experiment on SW-620 and in the experiment with UO-31 was > 100 µM (inactive) each time.
